# From patent publication US20220133767A1, “TARGETING MICRORNAS TO OVERCOME DRUG TOLERANCE AND RESISTANCE” (Beth Israel Deaconess Medical Center, Inc., priority 2019, published 2022)
# Entries after “also recorded” stand apart in the source; their conditions may differ.
# Legend:
# H1975 cells [1] = test: Cell viability of osimertinib-treated H1975 cells co-incubated with SDH inhibitor dimethyl malonate; format: cell-based, human; settings: 100 nM osimertinib co-incubated with 0, 0.03, 0.1 mM DMM for 3 days
# Experimental: (§1) Compound Treatment. Cell viability experiments were performed in 96-well format using opaque white plates (Corning). For 2D monolayer cell cultures and organoids, cells were plated into 96-well plates with 100-2000 cells per well in three-four replicates on day 0. Twenty-four hours after seeding, cells or organoids were exposed to compounds at indicated concentrations for 72 hours. Cellular ATP levels (as a surrogate for viability) were measured using CeliTiter-Glo (Cat #G7570, Promega) or CeliTiter-Glo 3D (Cat #G9681, Promega). For co-treatment experiments, spent medium was removed 24 hours after cell seeding and replaced with medium containing a single concentration of the modulator of interest (for example, osimertinib).
# H1975 organoids [2] = test: Fractional viability of H1975 organoids treated with osimertinib, LNA miR-147b inhibitor, DMOG, R59949 or combinations for 14 days; format: cell-based, human
# Experimental: (§2) For 3D organoid formation, single-cell suspensions (2000 cells/well/20 μl) were co-plated with geltrex (25 μl) in 96-well non-treated clear plates (Corning, cat #08-772-53). The plate was incubated for 20 minutes at 37° C. followed by adding 100 μl complete growth media. The complete growth media was advanced DMEM/F12 with glutamax (1×), HEPES (1×), 1.25 mM N-Acetylcysteine, 10 mM Nicotinamide, 10 μM Forskolin, B27 (1×), 5 ng/ml Noggin, 100 ng/ml FGF10, 20 ng/ml FGF2, 50 ng/ml EGF, 10 ng/ml PDGFA, 10 ng/ml FGF7, 1% penicillin-streptomycin, and 10 μM Y-27632. Y-27632 was used only for the initial three days because Y27632 is a rock inhibitor preventing apoptosis of single cells (Watanabe et al., Nat. Biotechnol. 25(6):681-686, 2007). PDGFA and FGF7 were not used until day 7 in organoid cultures because they are important for alveolarization during late lung development (Padela et al., Pediatr. Res. 63(3):232-8, 2008; Bostrom et al., Cell 85(6):863-873, 1996). FGF10 is essential for maintenance of lung progenitor cells and branching morphogenesis as well as tissue homeostasis in the adult lung (Sekine et al., Nat. Genet. 21(1):138-141, 1999). […] The organoids were photographed with a microscope (Evos Fla., Life Technology) and their size was measured by ImageJ. […]
# [3] = test system: pseudohypoxia genes in H1975 cells; test: qRT-PCR analysis of hypoxia (pseudohypoxia) gene expression; format: cell-based, human
# Experimental: Transfection by LNAs in vitro. Tumor cells were plated at 2,000 cells in complete growth medium in a 96 well plate to reach 50-60% confluence. 0˜120 nM of fluorescein-conjugated LNA anti-miR-147b (Sequence: […]; SEQ ID NO: 890) (Cat #4100977-011) or negative control (Sequence: TAACACGTCTATACGCCCA; SEQ ID NO: 891) (Cat #199006-011, Exiqon) with PureFection (System Biosciences) were applied for transfection. The transfected cells were harvested after culturing for 48 and 72 hours.
# PC9 cells = test: Single cell clonogenicity / frequency of drug-tolerant clones; settings: 0.1, 0.4 and 2 μM gefitinib (all three groups), 14 days, vehicle 8.3%±0.7%
# H1975 cells [4] = test: Cell viability of H1975 cells with HIF1A or EPAS1 knockdown or HIF1A A588T treated with osimertinib; format: cell-based, human; settings: 3 days
# Experimental: HIF1A and EPAS1 shRNAs and cDNA transfection. H1975 cells were seeded in a 6-well plate at 100,000 cells per well one day prior to transfection. A mixture of 2.5 μg pGFP-C-shLenti vector targeting HIF1A (OrGene, Cat #320380), EPAS1 (OriGene, Cat #TL315484), scrambled negative control (Cat #TR30021), lentiviral vector targeting HIF1A mutantA588T (OrGene, Cat #RC402571), control vector and 7.5 μL of PureFection (System Biosciences, Cat #LV750A-1) were used for transfection. The transfected cells were selected and maintained in 0.5 μg/ml puromycin (for shRNAs) or 600 μg/ml neomycin (for HIF1A A5887) in DMEM containing with 10% FBS for 9 days. Then the stable cells were passaged into 96-well plate at 3,000 cells per well followed by treatment with 100 nM osimertinib for 3 days. hsa-HIF1A targeting sequences: shRNA 1: […] (SEQ ID NO: 892), shRNA 2: […] (SEQ ID NO: 893), shRNA 3: […] (SEQ ID NO: 894), shRNA 4: […] (SEQ ID NO: 895). hsa-EPAS1 targeting sequences: shRNA 1: […] (SEQ ID NO: 896), shRNA 2: […] (SEQ ID NO: 897), shRNA 3: […] (SEQ ID NO: 898), shRNA 4: […] (SEQ ID NO: 899).
# PDX_LU_10 organoids = test: Pretreatment response on lung PDX organoids (organoid size); format: cell-based, human
# Source text: Patient-derived Xenograft Tumor Specimens. Tumor samples from patient-derived xenografts (PDXs) were generated at The Jackson Laboratory and the Yale Cancer Center by subcutaneous implantation of previously passaged tumors in up to 5 female NSG mice. When tumor samples reached 1000 mm^3 they were shipped to the laboratory in frozen media of DMEM with 90% FBS and 10% DMSO in dry ice. Samples were washed with cold phosphate buffer saline (PBS) with antibiotics (Sigma-Aldrich, St. Louis, Mo.) three times, chopped with a sterile blade, and incubated in 0.001% deoxyribonuclease (DNase) (Sigma-Aldrich, St. Louis, Mo.), 1 mg/ml collagenase/dispase (Roche, Indianapolis, Ind.), 200 U/ml penicillin, 200 μg/ml streptomycin, 0.5 μg/ml amphotericin B (2% antibiotics, Sigma) in DMEM/F12 medium (GIBCO, Grandlsland, N.Y.) at 37° C. water bath for 3 hours with intermittent shaking. After incubation, the suspensions were repeatedly triturated, passed through 70 μm and 40 μm cell-strainers (BD Falcon, San Jose, Calif.), and centrifuged at 122 g for 5 minutes at 4° C. Cells were resuspended in red blood cell lysis buffer (eBioscience, San Diego, Calif.) for 4 minutes at room temperature with intermittent shaking, before resuspension in serum-free medium. After lysis, cell viability was evaluated by trypan blue dye exclusion.
# (§3) The plate was incubated for 20 minutes at 37° C. followed by adding 100 μl complete growth media. […] The media was changed every three days in 24 days. The organoids were photographed with a microscope (Evos Fla., Life Technology) and their size was measured by ImageJ.
# Transfection by LNAs in vitro. Tumor cells were plated at 2,000 cells in complete growth medium in a 96 well plate to reach 50-60% confluence. […] The transfected cells were harvested after culturing for 48 and 72 hours.
# H1975 organoids [5] = test: Organoid number after lentiviral miR-147b inhibition and/or osimertinib; format: cell-based, human
# Experimental: as §3
# (§4) Lentiviral-mediated miRNA and VHL Overexpression or Knockdown Infection.
# HCC827 cells = test system: HCC827 cells
# Experimental: as §1, §4
# H1975 organoids [6] = test: Osimertinib treatment response (cell viability) on H1975 organoids transfected with LNA miR-147b inhibitor; format: cell-based, human; settings: 120 nM LNA miR-147b inhibitor
# Experimental: as §2
molecule,measurement,setting,value
"COC(=O)CC(=O)OC [DMM, dimethyl malonate]",drug-tolerance to osimertinib (cell viability),H1975 cells [1],promotes drug-tolerance; also recorded: effectively rescued
"COC(=O)CNC(=O)C(=O)OC [DMOG, dimethyloxaloylglycine]",osimertinib-tolerance (fractional viability) on co-treatment with DMOG,"H1975 organoids [2]; osimertinib 25 nM, LNA-anti147b 90 nM, DMOG 10 μM",rescued reduced osimertinib-tolerance
same,"pseudohypoxia gene levels reduced by miR-147b knockdown, on co-treatment with DMOG","[3]; H1975, 90 nM LNA miR-147b inhibitor + 10 μM DMOG",rescued significantly
same,expression of pseudohypoxia genes,"[3]; H1975, single dose of 10 μM DMOG vs vehicle",upregulated expression
O=c1c2ccccc2[nH]c(=S)n1CCN1CCC(=C(c2ccc(F)cc2)c2ccc(F)cc2)CC1 [R59949],"pseudohypoxia gene levels reduced by LNA-miR-147b inhibitor, on co-treatment with R59949","[3]; H1975 cells, 90 nM LNA miR-147b inhibitor + 30 μM R59949, three days",further inhibited
same,expression of pseudohypoxia genes,"[3]; H1975 cells, single dose of 30 μM R59949 vs vehicle",downregulation
COc1cc2ncnc(Nc3ccc(F)c(Cl)c3)c2cc1OCCCN1CCOCC1 [gefitinib],frequency of colony formation,PC9 cells,3.6%±0.3
C=CC(=O)Nc1cc(Nc2nccc(-c3cn(C)c4ccccc34)n2)c(OC)cc1N(C)CCN(C)C [osimertinib],increase of drug-tolerance towards osimertinib upon overexpression of HIF1A A588T,H1975 cells [4]; 100 nM osimertinib,up to two-fold
same,increase of cell sensitivity towards osimertinib upon HIF1A knockdown,"H1975 cells [4]; lentiviral shRNAs against HIF1A, 100 nM osimertinib",up to 2.6 fold
same,drug sensitivity towards osimertinib upon HIF2A knockdown,"H1975 cells [4]; lentiviral shRNAs against HIF2A/EPAS1, 100 nM osimertinib",did not change
same,decrease of size of the tumor organoids,"PDX_LU_10 organoids; 25 nM osimertinib on day 1 and 4, day 6",50%
same,increase (recovery) of organoid size,"PDX_LU_10 organoids; 25 nM osimertinib on day 1 and 4, day 14",40%
same,decrease of total number of organoids compared with the control group,H1975 organoids [5],two-fold
same,enhancement of drug-tolerance at the half-maximum inhibitory concentration (IC50) by enforced overexpression of miR-147b,HCC827 cells,60 fold
"LNA miR-147b inhibitor: fluorescein-conjugated LNA anti-miR-147b, sequence AGCAGAAGCATTTCCGCACA (SEQ ID NO: 890), Cat #4100977-011 (LNA-modified, fluorescein conjugated, pattern and position not given here)",osimertinib-tolerance (fractional viability),H1975 organoids [2]; osimertinib 25 nM + LNA-anti147b 90 nM,reduced osimertinib-tolerance
same,decrease of osimertinib-tolerance compared with control cells,"PDX_LU_10 organoids; 90 nM LNA miR-147b inhibitor on day 0 and day 2 + 25 nM osimertinib, day 8",80%
same,"PDX organoids volume increase, as % of that in control cells with the single agent of osimertinib","PDX_LU_10 organoids; LNA miR-147b inhibitor pretreatment + osimertinib, day 8 to day 14",no more than 10%
same,expression levels of pseudohypoxia genes,"[3]; H1975 cells, 90 nM LNA miR-147b inhibitor, three days, vs scrambled control",reduced expression levels
same,"decrease of IC50 for osimertinib / increase of sensitivity of drug-tolerant organoids to osimertinib, compared to scrambled control",H1975 organoids [6],30 fold
